For data set [1], the target named is T1, M184V HIV-1 RT (Human immunodeficiency virus type 1 group M subtype B, UniProt P03366, M783V/Q857C).
T1 construct: HIV-1 RT p66 and p51 subunits were expressed and purified as described previously; made in house
Kind of data set: Pre-steady-state single-turnover kinetics of nucleotide incorporation by M184V HIV-1 RT. It counts as biochemical. As for the experimental part: (§1) Previous kinetic studies[16],[18],[20],[22]–[26] have aimed at understanding the efficiency of incorporation for (−)-FTC-TP or (−)-3TC-TP, how they compete against dCTP, and the effect of resistance mutations, such as M184V. As in our previous work[20],[25],[26], single-turnover kinetic assays were performed by rapidly mixing a pre-incubating solution of 120 nM HIV-1 RT (WT or M184V) and 30 nM 5ʹ-[^32P]-labeled 18/26-mer dsDNA substrate (Methods) with varying concentrations of dCTP, or an active metabolite of NRTIs for different times, before being quenched by 0.37 M EDTA. Representative kinetic plots displaying M184V-catalyzed incorporation of (−)-FTC-TP onto 18/26-mer dsDNA substrate are shown in Fig. 2. […] We determined the pre-steady-state kinetic parameters of maximal nucleotide incorporation rate constants (kp) and apparent equilibrium dissociation constants (Kd) for dCTP, (+)-FTC-TP, (−)-FTC-TP, (+)-3TC-TP and (−)-3TC-TP with WT or M184V HIV-1 RT (Table 1). […] The resulting selectivity factors ((kp/Kd)dCTP/(kp/Kd)NRTI) were determined to be only 1.9 and 7.0-fold higher for dCTP over (−)-FTC-TP and (−)-3TC-TP, respectively.
(§2) Fig. 2 Determination of kinetic parameters for (−)-FTC-TP incorporation onto 18/26-mer dsDNA catalyzed by the M184V mutant of HIV-1 RT. a A pre-incubated solution of 120 nM M184V and 30 nM 5′-[^32P]-labeled 18/26-mer was mixed with increasing concentrations of (−)-FTC-TP (3.75 µM, ●; 7.5 µM, [drawing 1]; 15 µM, [drawing 2]; 30 µM, x; 60 µM, [drawing 3]; 120 µM, [drawing 4]; 240 µM, [drawing 5]; 480 µM, [drawing 6] ) for various times at 37 °C before being quenched with 0.37 M EDTA.
(§3) HIV-1 RT (120 nM) and 5ʹ-[^32P]-labeled 18/26-mer DNA (30 nM; DNA sequence shown above the 18mer primer without chemical modification) were pre-incubated at 37 °C for 5 min in reaction buffer containing 50 mM Tris-HCl (pH, 7.9), 10 mM MgCl2, 50 mM NaCl, 0.1 mM EDTA, 10% glycerol, 5 mM DTT, and 0.1 µg/mL BSA (all concentrations are final upon mixing). The reactions were initiated by rapidly mixing with varying concentrations of dCTP, FTC-TP, or 3TC-TP on a rapid chemical-quench flow apparatus (KinTek) and quenched with 0.37 M EDTA at various times. The DNA products were analyzed by sequencing gel electrophoresis (17% polyacrylamide, 8 M Urea), and quantitated using a Typhoon Trio (GE Healthcare) and ImageQuant software (Molecular Dynamics). The kinetic data were fit using non-linear regression software KaleidaGraph (Synergy) to a single-exponential equation Product=A1−exp−kobst, where A and kobs represent the reaction amplitude and observed nucleotide incorporation rate constant, respectively. Values for kobs were then plotted against the respective dNTP (or an NRTI triphosphate) concentration and each plot was fit to a hyperbolic equation kobs=kpdNTP∕Kd+dNTP, where kp is the maximal nucleotide incorporation rate constant and Kd is the apparent equilibrium dissociation constant for the binding of dNTP (or an NRTI triphosphate) to the RT and DNA complex. Each set of kinetic parameters (kp, Kd, kp/Kd) are derived from 8 individual experiments where the concentration of nucleotide is variable (i.e. 8 distinct concentrations of dCTP or NRTI). All reported error values are derived from data fitting using non-linear regression software KaleidaGraph (Synergy).

A further data set deals with T2, WT HIV-1 RT (Human immunodeficiency virus type 1 group M subtype B, UniProt P03366, Q857C).
T2 construct: HIV-1 RT p66 and p51 subunits were expressed and purified as described previously; made in house
Kind of data set: Pre-steady-state single-turnover kinetics of nucleotide incorporation by WT HIV-1 RT. It counts as biochemical. The following applies: for Kd: 18/26-mer dsDNA, 37 °C, read-out: Kd (apparent equilibrium dissociation constant); for Tighter binding (Kd) compared to natural dCTP: Kd dCTP / Kd analog. As for the experimental part:
as §1, §3

The next data set concerns HIV-1 M184V. To be noted: cited from earlier work; for Resistance conferred by M184V as compared to WT: single amino acid residue mutation M184V.
The test system of data set [2] is M184V HIV-1 RT. Kind of data set: Pre-steady-state single-turnover kinetics of nucleotide incorporation by M184V HIV-1 RT. It counts as biochemical. The following applies: M184V vs WT RT. As for the experimental part: as §1, §2, §3
The next data set deals with HIV virus. The following applies: initial cell-based screening; cited from earlier work.
The next data set concerns M184V mutant RT. The following applies: up; cited from earlier work.
In data set [3] the test system is HIV. The following applies: clinical trials, monotherapy; cited from earlier work.
The test system of data set [4] is HIV. Set-up: method as in PMID 19225726. To be noted: reportedly; cited from earlier work.

Consider `Nc1ccn([C@H]2C[C@H](O)[C@@H](COP(=O)(O)OP(=O)(O)OP(=O)(O)O)O2)c(=O)n1` [dCTP, deoxycytidine triphosphate], for which the Kd at M184V HIV-1 RT [1] amounted to 8.9 ± 1 µM; at WT HIV-1 RT (WT HIV-1 RT), 6.3 ± 0.2 µM.
Consider `Nc1ccn([C@H]2CS[C@@H](CO)O2)c(=O)n1` [3TC, 2ʹ,3ʹ-dideoxy-3ʹ-thiacytidine], for which, in the data set with HIV-1 M184V, the “Reduction in potency by M184V in cell-based assays” value is given as greater than 500 fold and the “Resistance conferred by M184V as compared to WT” value is greater than 500 fold.
`Nc1ccn([C@H]2CS[C@@H](COP(=O)(O)OP(=O)(O)OP(=O)(O)O)O2)c(=O)n1` [(+)-3TC-TP]: the Kd at M184V HIV-1 RT [1] was 5.4 ± 1.2 µM; on WT HIV-1 RT (WT HIV-1 RT), 0.202 ± 0.004 µM.
As to `Nc1ccn([C@@H]2CS[C@H](COP(=O)(O)OP(=O)(O)OP(=O)(O)O)O2)c(=O)n1` [(−)-3TC-TP], the Kd turned out to be 53 ± 4 µM at M184V HIV-1 RT [1] and 0.25 ± 0.01 µM at WT HIV-1 RT (WT HIV-1 RT). Besides, the “Reduction of binding affinity (higher Kd) of M184V compared to WT” value in the data set on M184V HIV-1 RT [2] worked out at 212 fold. For the same molecule, the “Higher Kd value (lower binding affinity) over (−)-FTC-TP” value at WT HIV-1 RT (WT RT) amounted to 2.5 fold. The “Tighter binding (Kd) compared to natural dCTP” value at WT HIV-1 RT (WT RT) worked out at 25 fold.
As for `Nc1nc(=O)n([C@@H]2CS[C@H](COP(=O)(O)OP(=O)(O)OP(=O)(O)O)O2)cc1F` [(−)-FTC-TP], the Kd on M184V HIV-1 RT [1] was found to be 28 ± 2 µM. In addition, the “Reduction of binding affinity (higher Kd) of M184V compared to WT” value in the data set on M184V HIV-1 RT [2] is on record as 280 fold. Besides, on WT HIV-1 RT (WT HIV-1 RT), the “Binding affinity increase (tighter binding) over (−)-3TC-TP” value is reported as 2.5 fold, the “Higher incorporation efficiency (kp/Kd) than (−)-3TC-TP” value was determined as 3.7 fold and the Kd stood at 0.1 ± 0.01 µM. For the same molecule, on WT HIV-1 RT (WT RT), the “Tighter binding (Kd) compared to natural dCTP” value was found to be 63 fold.
Turning to `Nc1nc(=O)n([C@H]2CS[C@@H](CO)O2)cc1F` [FTC, 2ʹ,3ʹ-dideoxy-5-fluoro-3ʹ-thiacytidine], in the data set on HIV virus, the “Cytotoxicity versus corresponding (+)-stereoisomer” value is listed as “less cytotoxic” and the “Potency against the HIV virus versus corresponding (+)-stereoisomer” value is “more potent”. In the data set with M184V mutant RT, the “Reduction in potency by M184V in enzyme-based assays” value is on record as greater than 300 fold. Moreover, in the data set with HIV-1 M184V, the “Reduction in potency by M184V in cell-based assays” value is on record as greater than 500 fold and the “Resistance conferred by M184V as compared to WT” value is recorded as greater than 500 fold. In addition, the “Reduction in viral HIV RNA” value with HIV [3] is recorded as 1.7 log.
For the molecule `Nc1nc(=O)n([C@H]2CS[C@@H](COP(=O)(O)OP(=O)(O)OP(=O)(O)O)O2)cc1F` [(+)-FTC-TP], the Kd on M184V HIV-1 RT [1] was 1.8 ± 0.3 µM; on WT HIV-1 RT (WT HIV-1 RT), 0.19 ± 0.02 µM.
For the molecule `Cc1cn([C@@H]2C[C@@H](O)[C@H](CO)O2)c(=O)[nH]c1=O` [Telbivudine], the “Inhibition of HIV” value with HIV [4] is “does not inhibit HIV”.

(Values after PMC6910994, “Elucidating molecular interactions of L-nucleotides with HIV-1 reverse transcriptase and mechanism of M184V-caused drug resistance” (Communications Biology, 2019).)
